# Measurements taken from patent US12661335B2, “Halogenated xanthene-containing topical anti-gram-positive bacterial ophthalmic composition and method” (Provectus Pharmatech, Inc., priority 2021, dated 2026).
# Test system: M. smegmatis 607 ™ (RB mutant)
# Format: cell-based, Mycobacterium smegmatis
row,Compound,susceptibility of the RB-resistant strain to TB drugs
1,"CCc1cc(C(N)=S)ccn1 [Ethionamide (ETH), Ethionamide]",susceptible
2,NCC[C@H](O)C(=O)N[C@@H]1C[C@H](N)[C@@H](O[C@H]2O[C@H](CN)[C@@H](O)[C@H](O)[C@H]2O)[C@H](O)[C@H]1O[C@H]1O[C@H](CO)[C@@H](O)[C@H](N)[C@H]1O [Amikacin],susceptible
3,"NNC(=O)c1ccncc1 [Isoniazid (INH), Isoniazid]",cross-resistance
4,"NC[C@H]1O[C@@H](O[C@H]([C@H]2O[C@@H](n3ccc(=O)[nH]c3=O)[C@H](O)[C@@H]2O)[C@H](NCCCC(=O)NCc2ccc(N3CCC(Oc4ccc(OC(F)(F)F)cc4)CC3)cc2)C(N)=O)[C@H](O)[C@@H]1O [APPB, aminouridyl phenoxypiperidinylbenzyl butanamide]",susceptible
5,Capreomycin,susceptible
